Assay results reported in PubChem BioAssay AID1465 (SRMLSC, 2008).

System: S. cerevisiae Yfh1-off respiration, WST-1 reduction, 72 h
Experiment: mitochondrial function rescue without frataxin homolog – Friedreich's ataxia, plus single-dose screen, dose response (AID 1465);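 note: activators that raise dye reduction in frataxin-depleted yeast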

SMILES | EC50 [µM]
COc1ccc(C2=NN(c3nc4ccccc4s3)C(=O)C2)cc1 | 59.4
Cc1ccc(NS(=O)(=O)c2cc([N+](=O)[O-])ccc2NNC(=S)Nc2cccc(Cl)c2)c(C)c1 | 30.8
O=C(Cn1nc(Cl)nc1Cl)c1cc2ccccc2oc1=O | 72.6
CCCCCC(=O)NNC(=S)NC(C)=O | 34.6
O=C(C1=C(c2ccccc2)C(=O)c2ccccc2C1=O)c1ccccc1 | 35.6
O=[N+]([O-])c1cccc(/C=N/Nc2nc(NCc3ccccc3)nc(N3CCOCC3)n2)c1O | 50.9
CCOC(=O)C1=C(Cc2ccc(F)cc2)C(=O)c2ccccc2C1=O | 36
CCN1/C(=C\C=C(C(C)=O)C(C)=O)Sc2ccccc21 | 87.4
Cc1coc2c1C(=O)C(=O)c1c-2ccc2c(C)cccc12 | 78.8
COc1cc(/C=N/NC(=O)c2cncc(Br)c2)cc([N+](=O)[O-])c1O | 58.1
CC1=C(C)C(=O)C(N2CCOCC2)=CC1=O | 14.3
O=C1C(Cl)=C(Nc2ccccc2)C(=O)c2ccccc21 | 67.6
CC1=C(C)C(=O)C(CCCCC#CCCCC#CCO)=C(C)C1=O | 94.8
O=C(O)c1cccc2nc3ccccc3nc12 | 47.6
CC[n+]1c(C=C2C=C(C)OC(C)=C2)sc2ccccc21 | 83.8
COc1cc([N+](=O)[O-])cc(/C=N/NC(=O)c2cc(-c3ccccc3)nc3ccccc23)c1O | 35.2
CCC(=O)NC(c1ccc(C)cc1)c1cc([N+](=O)[O-])c2cccnc2c1O (stereo not given) | 24.7
CCN(CC)c1ccc(/C=N/NC(=O)c2cccc(S(=O)(=O)Nc3ccccc3OC)c2)c(O)c1 | 75.4
CCC(=O)NC(c1cccs1)c1cc(Cl)c2cccnc2c1O (stereo not given) | 65.9
O=C(CCc1ccccc1)NC(c1cccs1)c1cc(Cl)c2cccnc2c1O (stereo not given) | 7.44

SMILES | EC50 [µM]
Oc1ccc(CN2CCC(Cc3ccccc3)CC2)c2cccnc12 | 96.9
CCC(=O)NC(c1ccc(OC)cc1)c1cc(Cl)c2cccnc2c1O (stereo not given) | 38.2
CCOC(=O)/C(C#N)=C\C=C1C=CN(C)C=C1 | 96
CC(=O)NC(c1cccs1)c1cc([N+](=O)[O-])c2cccnc2c1O (stereo not given) | 25.4
CC1=CC(=Cc2sc3ccccc3[n+]2C)C=C(C)O1 | 93.7
O=C1C=C(NCc2ccccc2)c2ccccc2C1=O | 36.1
O=c1cc(-c2ccccc2)[nH]n1-c1nc2ccccc2s1 | 49.1
O=C(O)c1cccc(NC(=S)N/N=C/c2ccccn2)c1 | 78.1
COC(=O)c1ccc(=O)c2nc3/c(=C/O)c(O)cc(=O)c3[nH]c12 | 21.9
CCCC(=O)NC(c1ccco1)c1cc([N+](=O)[O-])c2cccnc2c1O (stereo not given) | 55.2
NC(=S)n1[nH]c(-c2ccc([N+](=O)[O-])cc2)c(N=Nc2cccc([N+](=O)[O-])c2)c1=O | 44.1
Cc1c(N/N=C(\C#N)C(=O)c2ccccc2)c(=O)n(-c2ccccc2)n1C | 52
CC(=O)NC(c1ccc(C)cc1)c1cc([N+](=O)[O-])c2cccnc2c1O (stereo not given) | 25
COc1ccccc1C(=O)NNC1=C(C(=O)C(F)(F)F)CCC1 | 25.3
CCN1CCS/C1=C\C=C\C1=[N+](CC)CCS1 | 53.7
COc1ccc(Cn2c(O)c(/C=N/NC(=O)c3cccnc3)c3ccccc3c2=O)cc1 | 75.4
CCC(C(=O)O)N1C(=O)/C(=C/c2cccn2C)SC1=S (stereo not given) | 96.7
O=[N+]([O-])c1ccc(Sc2cccc[n+]2[O-])c2nonc12 | 16.8
O=C(N/N=C/c1c(O)n(Cc2ccccc2)c(=O)c2ccccc12)c1cccnc1 | 71.9
CC1CC(=O)c2c(cc3c(-c4c(O)cc(O)c5c(O)c6c(cc45)OC(C)CC6=O)c(O)cc(O)c3c2O)O1 (stereo not given) | 75

SMILES | EC50 [µM]
O=C(NNC1=C(C(=O)C(F)(F)F)CCC1)c1ccc(Br)cc1 | 59.8
CCC(=O)NC(c1ccc(OC)c(OC)c1)c1cc(Cl)c2cccnc2c1O (stereo not given) | 29.2
CCCCC(=O)NC(c1cccs1)c1cc(Cl)c2cccnc2c1O (stereo not given) | 8.49
CCCC(=O)NC(c1cccs1)c1cc([N+](=O)[O-])c2cccnc2c1O (stereo not given) | 20.9
O=C(COc1ccc(Cl)cc1Cl)NNC(=S)Nc1ccc(F)cc1 | 83.3
CN1/C(=C\C=C2C(=O)NC(=O)NC2=O)C(C)(C)c2ccccc21 | 96.8
CC1=CC(=O)c2ccccc2C1=O | 45.7
Cc1oc2c(c1C(=O)c1ccccc1)C(=O)C(=O)c1ccccc1-2 | 35.2
CCN1CCS/C1=C/C=C/C1=[N+](CC)CCS1 | 56.3
CCOC(=O)c1c(C)oc2c1c(CN1CCN(CCO)CC1)c(O)c1ccccc12 | 85
Cc1ccccc1C(=O)/C(C#N)=N/Nc1c(C)n(C)n(-c2ccccc2)c1=O | 60
CCC(=O)NC(c1cccs1)c1cc([N+](=O)[O-])c2cccnc2c1O (stereo not given) | 34.4
Cc1cc(C(=O)N/N=C/c2ccc(O)c(O)c2O)c(C)n1-c1ccccc1 | 46
O=C1NC(=O)C(=Cc2ccc(N3CCOCC3)o2)C(=O)N1 | 96.6
c1ccc(-c2ccc(SCc3cccnc3)nn2)nc1 | 42.5
Cc1c(N/N=C(\C#N)C(=O)c2ccc(Cl)cc2)c(=O)n(-c2ccccc2)n1C | 21.5
COc1ccccc1N1CCN(Cc2ccc(O)c3ncccc23)CC1 | 43
CCCCC(=O)NC(c1ccccc1OC)c1ccc2cccnc2c1O (stereo not given) | 36.5
O=C1c2ccccc2NC(c2ccc(-c3cccc(Cl)c3)o2)N1O (stereo not given) | 80
Cn1cccc1/C=C1\SC(=S)N(CC(=O)O)C1=O | 92.2
